Experimental data from ChEMBL document CHEMBL3862002, “Wortmannilactones I-L, new NADH-fumarate reductase inhibitors, induced by adding suberoylanilide hydroxamic acid to the culture medium of Talaromyces wortmannii” (Bioorg Med Chem Lett, 2016).

Columns and labels:
Fumarate reductase = biological target: T1, Fumarate reductase (Ascaris suum, UniProt F1KRD8); experiment: Inhibition of NADH-Fumarate reductase in Ascaris suum muscle sub-mitochondrial particles using disodium fumarate as substrate in presence of NADH after 3 mins measured every 15 sec for 10 mins under anaerobic condition
T1 sequence (F1KRD8 whole entry): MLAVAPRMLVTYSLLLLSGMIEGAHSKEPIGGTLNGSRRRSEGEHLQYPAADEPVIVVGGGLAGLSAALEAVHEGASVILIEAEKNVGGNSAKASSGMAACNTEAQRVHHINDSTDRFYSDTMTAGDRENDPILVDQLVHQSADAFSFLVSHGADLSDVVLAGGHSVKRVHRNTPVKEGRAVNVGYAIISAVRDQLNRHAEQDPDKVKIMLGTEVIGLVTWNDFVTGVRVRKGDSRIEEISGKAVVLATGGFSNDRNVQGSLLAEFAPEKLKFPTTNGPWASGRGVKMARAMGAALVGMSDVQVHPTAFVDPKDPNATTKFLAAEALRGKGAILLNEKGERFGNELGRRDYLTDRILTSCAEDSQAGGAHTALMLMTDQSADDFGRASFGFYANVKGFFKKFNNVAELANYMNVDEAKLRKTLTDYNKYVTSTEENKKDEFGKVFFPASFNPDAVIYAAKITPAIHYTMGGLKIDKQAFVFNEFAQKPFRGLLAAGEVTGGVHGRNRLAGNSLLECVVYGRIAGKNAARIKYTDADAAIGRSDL

[1] = Inhibition of NADH oxidase in pig heart sub-mitochondrial particles using NADH as substrate after 3 mins measured every 15 sec for 10 mins under aerobic condition; design: species or system Sus scrofa

Structure (SMILES) | IC50 (Fumarate reductase) | IC50 [1]
C=C1C=C(C)[C@H](/C(C)=C/C=C/C=C/C=C/[C@]2(C)[C@H]3OC(=O)[C@]2(C)C(=O)[C@@H]3C)O[C@H]1C | 0.84 µM | 35 µM
CC1=C[C@@](C)(O)[C@@H](C)O[C@H]1/C(C)=C/C=C/C=C/C=C/C(C)=C/[C@]1(C)[C@H]2OC(=O)[C@]1(C)C(=O)[C@@H]2C | 0.0024 µM | 
CO[C@@]1(C)C=C(C)[C@H](/C(C)=C/C=C/C=C/C=C/[C@]2(C)[C@H]3OC(=O)[C@]2(C)C(=O)[C@@H]3C)O[C@H]1C | 0.84 µM | 100 µM
CO[C@]1(C)C=C(C)[C@H](/C(C)=C/C=C/C=C/C=C/[C@]2(C)[C@H]3OC(=O)[C@]2(C)C(=O)[C@@H]3C)O[C@H]1C | 1.35 µM | 145 µM
CC1=C[C@@](C)(O)[C@@H](C)O[C@@H]1/C(C)=C/C=C/C=C/C=C/C(C)=C/[C@]1(C)[C@H]2OC(=O)[C@]1(C)C(=O)[C@@H]2C | 0.47 µM | 
CC1=C[C@](C)(O)[C@H](/C(C)=C/C=C/C=C/C=C/[C@]2(C)[C@H]3OC(=O)[C@]2(C)C(=O)[C@@H]3C)O[C@H]1C | 0.85 µM | 56 µM
Cc1cc(/C=C/c2ccc3cc(N(C)C)ccc3[n+]2C)c(C)n1-c1ccccc1 [PYRVINIUM PAMOATE] | 0.5 µM | 
